This note sets out measurements from ChEMBL document CHEMBL1152637, “Synthesis and evaluation of non-hydrolyzable D-mannose 6-phosphate surrogates reveal 6-deoxy-6-dicarboxymethyl-D-mannose as a new strong inhibitor of phosphomannose isomerases” (Bioorg Med Chem, 2009).

The target in assay [1] is T1, Mannose-6-phosphate isomerase (Escherichia coli (strain K12), UniProt P00946).
T1 sequence (P00946 whole entry): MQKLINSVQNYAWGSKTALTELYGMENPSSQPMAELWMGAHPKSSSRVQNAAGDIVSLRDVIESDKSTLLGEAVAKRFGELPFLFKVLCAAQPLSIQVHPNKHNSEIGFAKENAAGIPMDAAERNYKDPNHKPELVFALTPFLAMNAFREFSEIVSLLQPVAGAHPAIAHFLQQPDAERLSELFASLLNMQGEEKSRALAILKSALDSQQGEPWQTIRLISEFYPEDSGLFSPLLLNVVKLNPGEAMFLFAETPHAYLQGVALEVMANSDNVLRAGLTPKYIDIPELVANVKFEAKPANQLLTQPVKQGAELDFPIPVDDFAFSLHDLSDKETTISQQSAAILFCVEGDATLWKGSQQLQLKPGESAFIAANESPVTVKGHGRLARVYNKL
The assay can be described thus: Inhibition of Escherichia coli type I phosphomannose isomerase assessed as D-mannose 6-phosphate to D-fructose 6-phosphate isomerization at pH 7.1 by PGI/G6PDH coupled enzyme spectrophotometric assay.

Assay [2] has as its target T2, Mannose-6-phosphate isomerase (Saccharomyces cerevisiae, UniProt P29952).
T2 sequence (P29952 whole entry): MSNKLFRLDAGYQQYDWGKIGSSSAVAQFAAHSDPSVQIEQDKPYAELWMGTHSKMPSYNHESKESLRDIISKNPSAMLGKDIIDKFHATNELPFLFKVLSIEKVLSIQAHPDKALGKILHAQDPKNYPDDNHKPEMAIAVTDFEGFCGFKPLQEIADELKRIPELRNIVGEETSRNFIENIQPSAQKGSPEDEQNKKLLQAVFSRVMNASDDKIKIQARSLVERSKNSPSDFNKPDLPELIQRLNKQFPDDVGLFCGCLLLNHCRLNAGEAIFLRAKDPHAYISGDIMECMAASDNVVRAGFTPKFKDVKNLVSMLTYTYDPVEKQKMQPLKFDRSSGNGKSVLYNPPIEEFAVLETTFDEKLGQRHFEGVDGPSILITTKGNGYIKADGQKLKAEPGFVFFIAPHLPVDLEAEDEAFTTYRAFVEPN
The assay is described as follows: Inhibition of Saccharomyces cerevisiae type I phosphomannose isomerase assessed as D-mannose 6-phosphate to D-fructose 6-phosphate isomerization at pH 7.1 by PGI/G6PDH coupled enzyme spectrophotometric assay.

In assay [3] the target is T3, Mannose-6-phosphate isomerase (Escherichia coli (strain K12)) (UniProt P00946).
T3 sequence (whole entry): T1 sequence (P00946 whole entry)
The assay can be described thus: Competitive inhibition of Escherichia coli type I phosphomannose isomerase assessed as D-mannose 6-phosphate to D-fructose 6-phosphate isomerization at pH 7.1 by PGI/G6PDH coupled enzyme spectrophotometric assay.

Assay [4] has as its target T4, Mannose-6-phosphate isomerase (Saccharomyces cerevisiae) (UniProt P29952).
T4 sequence (whole entry): T2 sequence (P29952 whole entry)
The assay can be described thus: Competitive inhibition of Saccharomyces cerevisiae type I phosphomannose isomerase assessed as D-mannose 6-phosphate to D-fructose 6-phosphate isomerization at pH 7.1 by PGI/G6PDH coupled enzyme spectrophotometric assay.

Active and inactive are the calls of the source. The calls are words filed in the database; no cut-off is given here.

With `O=C(NO)[C@@H](O)[C@H](O)[C@H](O)CCP(=O)(O)O.ONO.ONO.ONO`, the results for the IC50 in assay [1] and in assay [2] were 370 µM and 2200 µM, respectively.

Consider `O=C(O)[C@@H](O)[C@H](O)[C@H](O)CP(=O)(O)O`, for which the IC50 (in general, the concentration at which inhibition is half-maximal) in assay [1] is above 3000 µM.

With `NNC(=O)[C@@H](O)[C@H](O)[C@H](O)CCP(=O)(O)O`, in assay [1], the IC50 is above 3000 µM.

With `O=C(O)C(C[C@H]1OC(O)[C@@H](O)[C@@H](O)[C@@H]1O)C(=O)O` (some centres not stated), the inhibition result in assay [3] and in assay [4] was “Active” throughout. In addition, the results for the half-maximal inhibitory concentration (IC50) in assay [1] and in assay [2] were 199 µM and 18.1 µM, respectively. Also, the results for the Ki in assay [1] and in assay [2] were 115 µM and 10.5 µM, respectively.

As to `O=C(O)CC[C@H]1OC(O)[C@@H](O)[C@@H](O)[C@@H]1O` (some centres not stated), the IC50 in assay [1] turned out to be 4600 µM; in assay [2], 900 µM.
